Molecules are shown by their SMILES.

The values that follow come from patent US10525021B2, “Mitochondrial uncouplers for treatment of metabolic diseases and cancer” (RUTGERS, THE STATE UNIVERSITY OF NEW JERSEY, priority 2014, dated 2020).

The subject of one assay is AMPK. The assay is described as follows: AMPK activation analysis by immunoblotting with antibody against phosphorylated AMPK. The settings on record: two-hour treatment, phospho-AMPKα (Thr172) immunoblot. In kind it is cell-based. The procedure: AMPK activation analysis by immunoblotting assay with antibody against phosphorylated AMPK: mouse pancreatic cancer cell line, Panc02, or NIH-3T3 fibroblasts, or human liver carcinoma cell line HepG2, were cultured in Dulbecco's modified Eagle's medium (DMEM) supplemented with 10% (vol/vol) fetal bovine serum, 100 unit·ml^−1 of penicillin, 100 μg·ml^−1 of streptomycin and 0.29 mg·ml^−1 of L-glutamine at 37° C. and 5% CO2. For treatment, individual compound was first dissolved in DMSO to make stock solution, and then was added directly to the culturing medium to desired concentration by at least 1:1000 dilution. After a two-hour treatment, cells were collected and homogenized within lysis buffer containing 10 mM TRIS-HCl (pH 7.9), 10% glycerol, 0.1 mM EDTA, 100 mM KCl, 0.2% NP-40, 0.5 mM PMSF, 1 mM DTT, mini-complete protease inhibitor cocktail (Roche, 11836153001), and phosphatase inhibitor cocktail (Roche, 04906845001) if required. Nuclei and insoluble debris were pelleted in an Eppendorf micro-centrifuge at 10,000 rpm for 5 min at 4° C. Cell extracts were then stored at −20° C. or immediately subjected to sodium dodecyl sulfate-polyacrylamide gel electrophoresis (SDS-PAGE). […] Quantification was determined by measuring band intensity using ImageJ software and calculating the ratio of protein of interesting to internal loading control. […]
On the technique in general: A western blot detects proteins with antibodies after separation by electrophoresis.
For `O=C(Nc1cnc(Br)cn1)c1cc(Cl)ccc1O` [Compound 2, N-(5-Bromopyrazin-2-yl)-5-chloro-2-hydroxybenzamide], the “Concentrations for AMPK activation” value was “*** (<=10 μM)”.

For the compound `N#Cc1ccc(NC(=O)c2cc(Cl)ccc2OP(=O)(O)O)c(Cl)c1` [Compound 13, 4-Chloro-2-((2-chloro-4-cyanophenyl)carbamoyl)phenyl dihydrogen phosphate], the “Concentrations for AMPK activation” value was “*** (<=10 μM)”.

In the next assay the test system is NIH-3T3 cells, or HepG2 cells. Description: Mitochondrial uncoupling activity assay (loss of mitochondrial TMRE staining in live cells). Particulars: 2 h, read-out: Activities (mitochondrial uncoupling activity, EC50). In kind it is cell-based. As to the method:
Mitochondrial uncoupling analyses in live cells were performed with cultured mammalian cells, the NIH-3T3 cells, or HepG2 cells. Cells were seeded onto 6-well plate and cultured in DMEM medium supplemented with 10% fetal bovine serum and 2 mM glutamine. Cells were allowed to grow to logarithmic growth phase prior to experiments. The cells were treated with each individual synthesized compound at various concentrations for two hours, followed by staining with TMRE (tetramethylrhodamine ethyl ester) at final concentration of 100 nM for 15 minutes. The cells were then washed once with PBS, and examined under fluorescence microscopy. A positive control of cells treated with various concentrations of niclosamide ethanolamine were used as positive control. Percentage of cells losing mitochondrial TMRE staining was used as a quantification of mitochondrial uncoupling activity.
Consider `O=C(Nc1cnccn1)c1cc(Cl)ccc1O` [Compound 1, 5-Chloro-2-hydroxy-N-(pyrazin-2-yl)benzamide], for which the EC50 (as a rule, the concentration giving half of the maximal effect) was less than 10 µM. As for `N#Cc1cnc(NC(=O)c2cc(Cl)ccc2O)cn1` [Compound 3, 5-Chloro-N-(5-cyanopyrazin-2-yl)-2-hydroxybenzamide], the EC50 is less than 10 µM. On the same count and under the same terms, with `N#Cc1cnc(NC(=O)c2cc(Cl)ccc2O)c(Cl)n1` [Compound 4, 5-Chloro-N-(3-chloro-5-cyanopyrazin-2-yl)-2-hydroxybenzamide] the figure was greater than 50 µM; with `O=C(Nc1cncnc1)c1cc(Cl)ccc1O` [Compound 5, 5-Chloro-2-hydroxy-N-(pyrimidin-5-yl)benzamide], greater than 50 µM; with `O=C(Nc1cccnn1)c1cc(Cl)ccc1O` [Compound 9, 5-Chloro-2-hydroxy-N-(pyridazin-3-yl)benzamide], greater than 50 µM. On to `O=C(Nc1ccc(Cl)nn1)c1cc(Cl)ccc1O` [Compound 10, 5-Chloro-N-(6-chloropyridazin-3-yl)-2-hydroxybenzamide], for which the EC50 was 10 to 50 µM.

For `N#Cc1ccc(NC(=O)c2cc(Cl)ccc2O)nc1` [Compound 11, 5-Chloro-N-(5-cyanopyridin-2-yl)-2-hydroxybenzamide], the EC50 lay within 10 to 50 µM. As for `CCOP(=O)(O)Oc1ccc(Cl)cc1C(=O)Nc1ccc(C#N)cc1Cl` [Compound 12, 4-Chloro-2-((2-chloro-4-cyanophenyl)carbamoyl)phenyl ethyl hydrogen phosphate], the EC50 was greater than 50 µM. On to `N#Cc1ccc(NC(=O)c2cc(Cl)ccc2OP(=O)(O)O)c(Cl)c1` [Compound 13, 4-Chloro-2-((2-chloro-4-cyanophenyl)carbamoyl)phenyl dihydrogen phosphate], for which the EC50 is less than 10 µM. Consider `O=C(Nc1nc2c(F)cccc2s1)c1cc(Cl)ccc1O` [Compound 18, 5-Chloro-N-(4-fluorobenzo[d]thiazol-2-yl)-2-hydroxybenzamide], for which the EC50 is less than 10 µM. In the case of `N#Cc1cnc(NC(=O)c2cc(Cl)ccc2OP(=O)(O)O)cn1` [Compound 19, 4-Chloro-2-((5-cyanopyrazin-2-yl)carbamoyl)phenyl dihydrogen phosphate], the EC50 is less than 10 µM. On the same count and under the same terms, with `O=C(Nc1nc2c(C(F)(F)F)cccc2s1)c1cc(Cl)ccc1O` [Compound 29, 5-Chloro-2-hydroxy-N-(4-(trifluoromethyl)benzo[d]thiazol-2-yl)benzamide] the figure was less than 10 µM.

For `O=C(Nc1nc2ccc(C(F)(F)F)cc2s1)c1cc(Cl)ccc1O` [Compound 31, 5-chloro-2-hydroxy-N-(6-(trifluoromethyl)benzo[d]thiazol-2-yl)benzamide], the EC50 is less than 10 µM.

Still in this assay, the particulars now being: 2 h; two-hour treatment, TMRE 100 nM staining; concentration at which mitochondrial TMRE fluorescence is reduced to about 50%; read-out: Activities (mitochondrial uncoupling activity, EC50).
For the compound `O=C(Nc1cnc(Br)cn1)c1cc(Cl)ccc1O` [Compound 2, N-(5-Bromopyrazin-2-yl)-5-chloro-2-hydroxybenzamide], the half-maximal effective concentration (EC50) was less than 10 µM. `O=C(Nc1cnc(Cl)nc1Cl)c1cc(Cl)ccc1O` [Compound 6, 5-Chloro-N-(2,4-dichloropyrimidin-5-yl)-2-hydroxybenzamide]: the EC50 is greater than 50 µM. For `O=C(Nc1cnc(Cl)nc1)c1cc(Cl)ccc1O` [Compound 7, 5-Chloro-N-(2-chloropyrimidin-5-yl)-2-hydroxybenzamide], the EC50 was less than 10 µM. On to `N#Cc1ncc(NC(=O)c2cc(Cl)ccc2O)cn1` [Compound 8, 5-Chloro-N-(2-cyanopyrimidin-5-yl)-2-hydroxybenzamide], for which the EC50 was in the range of 10 to 50 µM. The same measure, in the same setting: with `O=C(Nc1ccc2scnc2c1)c1cc(Cl)ccc1O` [Compound 15, N-(Benzo[d]thiazol-5-yl)-5-chloro-2-hydroxybenzamide] the figure was less than 10 µM; with `N#Cc1cnc(NC(=O)c2cc(Cl)ccc2O)s1` [Compound 16, 5-chloro-N-(5-cyanothiazol-2-yl)-2-hydroxybenzamide], less than 10 µM. The same measure, in the same setting: with `O=C(Nc1ccc2ccncc2c1)c1cc(Cl)ccc1O` [Compound 21, 5-Chloro-2-hydroxy-N-(isoquinolin-7-yl)benzamide] the figure was 10 to 50 µM; with `O=C(Nc1ccc2nccnc2c1)c1cc(Cl)ccc1O` [Compound 22, 5-Chloro-2-hydroxy-N-(quinoxalin-6-yl)benzamide], 10 to 50 µM. Regarding `O=C(Nc1cnc(C(F)(F)F)cn1)c1cc(Cl)ccc1O` [Compound 35, 5-chloro-2-hydroxy-N-(5-(trifluoromethyl)pyrazin-2-yl)benzamide], the EC50 is less than 10 µM. For the compound `N#Cc1ccc2nc(NC(=O)c3cc(Cl)ccc3O)sc2c1` [Compound 36, 5-chloro-N-(6-cyanobenzo[d]thiazol-2-yl)-2-hydroxybenzamide], the EC50 is less than 10 µM.

In another assay the test system is mouse colon cancer cell line MC38. Description: Clonogenic assay for cell proliferation inhibition (colony formation). It counts as cell-based. Particulars: MC-38, MC38 cells, treated 24-48 hrs, colonies counted after 2 weeks, read-out: IC50 concentrations (inhibition of colony formation). As to the method:
Clonogenic assay for determining activity of cell proliferation inhibition: mouse colon cancer cell line MC38 was seeded onto 6-well plates at the density of about 200 cells per well, grown under medium conditions as described above, after attachment, cells were treated with ascending concentrations of example compounds for 24-48 hrs. The drug-containing medium was then removed and fresh medium without drug was added to each well. Cells were then grown for 2 weeks for colony formation. During the two weeks, old medium was aspirated out and fresh drug-free medium was added to the wells every two days. At the end of the experiment, the colonies were counted for the treatment at each concentration. IC50 is defined as the concentration that inhibits 50% of colony formation as compared to the no drug treatment control.
For `N#Cc1ccc(NC(=O)c2cc(Cl)ccc2OP(=O)(O)O)c(Cl)c1` [Compound 14, Sodium 4-chloro-2-((2-chloro-4-cyanophenyl)carbamoyl)phenyl phosphate], the IC50 is no more than 10 µM.
